Measurements published in paper PMC4138406, “In vitro and in vivo anti-malarial activity of limonoids isolated from the residual seed biomass from Carapa guianensis (andiroba) oil production” (Malaria Journal, 2014).
Values after ≈ are worked out from the molar mass of the structure shown. Values joined by “and” are separate entries in the source; they are usually repeats but may differ in a detail not shown here. Equal values may be shown once. Where a name gives a salt, the structure may show the parent alone. Read-outs that look alike come from different tables or passages of the source.

Legend:
[1] = tested on: Plasmodium falciparum K1 strain; test: In vitro anti-plasmodial assay (micro test), growth inhibition of P. falciparum K1; type: cell-based; settings: for IC50: Plasmodium falciparum, read-out: IC50 Plasmodium falciparum K1; for Result Plasmodium falciparum K1: activity class from IC50, K1 strain
Experimental: Briefly, this procedure involved preparing 5 mg/mL stock solutions of each compound in dimethyl sulfoxide (DMSO). The stock solutions were diluted to provide test solutions having concentrations in the range 0.13-100 μg/mL. Test solutions were transferred to 96-well test plates containing parasitized red blood cells with initial 2% haematocrit and 1% parasitaemia. Each sample was evaluated in duplicate and the test plate was incubated for 48 h at 37°C. After incubation, quantification of parasites was achieved by optical microscopy on blood smears from each well [27].

[2] = tested on: Plasmodium berghei NK65 strain; test: Peters 4-day suppressive test in infected BALB/c mice; type: in vivo, Plasmodium berghei in BALB/c mice
Experimental: Adult BALB/c mice (22 ± 3 g weight) were used for the in vivo anti-malarial tests and received water and food ad libitum. In vivo tests were performed using ‘Guidelines for Ethical Conduct in The Care and Use of Animals of the National Institute for Amazon Research (INPA)’.
Limonoids 3 and 4 were assayed for in vivo anti-malarial activity in the Peters 4-day suppressive test against the Plasmodium berghei NK65 strain in BALB/c female mice, each inoculated with 1 × 10^5 parasitized red blood cells. The mice were randomly divided into groups of five individuals and individual […] evaluation of parasitaemia versus controls (negative control groups were treated with 2% DMSO vehicle and positive control groups with chloroquine) on days 5 and 7 following an established procedure. Mortality was monitored in all groups for four weeks after inoculation. Two independent in vivo experiments were performed.

[3] = tested on: MRC-5 human fibroblasts; test: Cytotoxicity assay (AlamarBlue) on MRC-5 human fibroblasts; type: cell-based
Experimental: The MRC-5 cell line of human fibroblasts was grown in Dulbecco’s Modified Eagle’s Medium (DMEM) supplemented with 10% fetal bovine serum, 2 mM glutamine, 100 μg/mL streptomycin and 100 U/mL penicillin, and incubated at 37°C with a 5% atmosphere of CO2. For assays, the cells were plated in 96-well plates (2.5 × 10^4 cells/well) and the AlamarBlue™ assay was performed using a previously described procedure. After incubation for 24 h, compounds 1-5 were individually dissolved in DMSO and the resulting solutions were diluted in culture medium. The resulting dilute solutions of each sample were added to wells at final (well) concentrations of 1.56-100 μg/mL. Control groups had final well concentrations of 0.1% DMSO. The plates were further incubated for 48 h. 3 h before the end of the incubation period, AlamarBlue™ (10 μL) was added to each well. The fluorescent signal was monitored with a multiplate reader using 530-560 nm excitation and 590 nm emission wavelengths.

[4] = tested on: FCR-3 strain of P. falciparum; parameters: method as in doi:10.1016/j.tet.2011.12.076; settings: read-out: IC50 against the FCR-3 strain of P. falciparum; cited from earlier work
[5] = tested on: W2 strain of P. falciparum; settings: cited from earlier work
[6] = tested on: K1 and FCR-3 strains of P. falciparum; settings: earlier studies; read-out: IC50 against the K1 and FCR-3 strains of P. falciparum; cited from earlier work
[7] = tested on: P. berghei strain ANKA; settings: cited from earlier work
[8] = tested on: W2, D6 and FCR-3 strains of P. falciparum; parameters: method as in doi:10.1016/j.tet.2011.12.076, PMID 9134742, doi:10.1111/j.1744-7348.2003.tb00279.x; settings: range over strains; read-out: IC50 against W2, D6 and FCR-3 strains of P. falciparum; cited from earlier work
[9] = parameters: method as in PMID 12570769; settings: cited from earlier work
[10] = tested on: P. falciparum D6; parameters: method as in PMID 9134742; settings: cited from earlier work
[11] = tested on: Plasmodium vinckei; parameters: method as in PMID 23433124; settings: cited from earlier work
[12] = MRC5, MRC-5, 48 h, read-out: IC50 Human fibroblasts MRC-5
[13] = 50 mg/kg/day, vs untreated controls
[14] = 100 mg/kg/day, vs untreated controls

For `CCN(CC)CCCC(C)Nc1ccnc2cc(Cl)ccc12` (stereo not drawn) [chloroquine diphosphate, reference compound], the IC50 ([1]; K1, 48 h) was 0.33 µM, the “Result Plasmodium falciparum K1” value [1] was “A (0.1 < IC50 ≤ 5 μM = active (A))” and the “Average survival time ± SD Oral” value ([2]; 5 mg/kg/day) was greater than 40 days. For the same compound, the “% Parasite inhibition Oral 5th day” value ([2]; 5 mg/kg/day) was 100%, the “% Parasite inhibition Oral 7th day” value ([2]; 5 mg/kg/day) was 98% and the “Average survival time ± SD Subcutaneous” value ([2]; 5 mg/kg/day) was greater than 40 days. The “% Parasite inhibition Subcutaneous 5th day” value ([2]; 5 mg/kg/day) was 99% and the “% Parasite inhibition Subcutaneous 7th day” value ([2]; 5 mg/kg/day) was 99%.
With `CC(=O)O[C@@H]1C2C(C)(C)C(=O)C=C[C@]2(C)C2CC[C@@]3(C)[C@H](c4ccoc4)C(=O)[C@H]4O[C@]43[C@]2(C)[C@@H]1OC(C)=O` (stereo partly drawn) [compound 1, 6α-acetoxyepoxyazadiradione] the IC50 ([1]; K1 strain, 48 h incubation) was 15.4 µM, the “Result Plasmodium falciparum K1” value [1] was “MA (5 < IC50 ≤ 20 μM = moderately active (MA))” and the IC50 [3, 12] was greater than 191 µM.
With `C=C1[C@@H]([C@@]2(C)C=CC(=O)C(C)(C)[C@@H]2CC(=O)OC)CC[C@@]2(C)[C@H](c3ccoc3)OC(=O)[C@H]3O[C@]132` [compound 2, andirobin] the IC50 ([1]; K1 strain, 48 h incubation) was 15.3 µM, the “Result Plasmodium falciparum K1” value [1] was “MA (5 < IC50 ≤ 20 μM = moderately active (MA))” and the IC50 [3, 12] was greater than 203 µM.
For `CC(=O)O[C@@H]1C2C(C)(C)C(=O)C=C[C@]2(C)C2CC[C@@]3(C)[C@H](c4ccoc4)OC(=O)[C@H]4O[C@]43[C@]2(C)[C@@H]1OC(C)=O` (stereo partly drawn) [compound 3, 6α-acetoxygedunin], the IC50 [4] is given as 2.8 µM, the IC50 ([1]; K1 strain, 48 h incubation) is given as 7 µM and the “Result Plasmodium falciparum K1” value [1] is given as “MA (5 < IC50 ≤ 20 μM = moderately active (MA))”. The “Average survival time ± SD Oral” value ([2]; 50 mg/kg/day) was 20 ± 3 days, the “% Parasite inhibition Oral 5th day” value [2, 13] was 40% and 40.2% and the “% Parasite inhibition Oral 7th day” value ([2]; 50 mg/kg/day) was 34.7%. For the same compound, the “Average survival time ± SD Subcutaneous” value ([2]; 50 mg/kg/day) was 21 ± 2 days, the “% Parasite inhibition Subcutaneous 5th day” value ([2]; 50 mg/kg/day) was 34.4% and the “% Parasite inhibition Subcutaneous 7th day” value ([2]; 50 mg/kg/day) was 16.8%. The “Average survival time ± SD Oral” value ([2]; 100 mg/kg/day) was 24 ± 3 days, the “% Parasite inhibition Oral 5th day” value [2, 14] was 66% and 65.7% and the “% Parasite inhibition Oral 7th day” value ([2]; 100 mg/kg/day) was 46.3%. For the same compound, the “Average survival time ± SD Subcutaneous” value ([2]; 100 mg/kg/day) was 22 ± 4 days, the “% Parasite inhibition Subcutaneous 5th day” value ([2]; 100 mg/kg/day) was 44.2% and the “% Parasite inhibition Subcutaneous 7th day” value ([2]; 100 mg/kg/day) was 30.4%. The IC50 [3, 12] was greater than 185 µM.
For `CC1(C)C(=O)C=C[C@@]2(C)C1CC(=O)[C@]1(C)C2CC[C@@]2(C)[C@H](c3ccoc3)OC(=O)[C@H]3O[C@]321` (stereo partly drawn) [compound 4, 7-deacetoxy-7-oxogedunin], the IC50 ([1]; K1, 48 h) is given as 20.7 µM, the “Result Plasmodium falciparum K1” value [1] is given as “I (IC50 > 20 μM = inactive (I))” and the IC50 ([5]; read-out: IC50 against the W2 strain of P. falciparum) is given as greater than 22.8 µM. The “Average survival time ± SD Oral” value ([2]; 50 mg/kg/day) was 20 ± 2 days, the “% Parasite inhibition Oral 5th day” value [2, 13] was 19.3% and the “% Parasite inhibition Oral 7th day” value ([2]; 50 mg/kg/day) was 0%. The “Average survival time ± SD Subcutaneous” value ([2]; 50 mg/kg/day) was 21 ± 4 days, the “% Parasite inhibition Subcutaneous 5th day” value ([2]; 50 mg/kg/day) was 29.2% and the “% Parasite inhibition Subcutaneous 7th day” value ([2]; 50 mg/kg/day) was 0%. For the same compound, the “Average survival time ± SD Oral” value ([2]; 100 mg/kg/day) was 21 ± 3 days, the “% Parasite inhibition Oral 5th day” value [2, 14] was 40% and 40.3% and the “% Parasite inhibition Oral 7th day” value ([2]; 100 mg/kg/day) was 28.9%. For the same compound, the “Average survival time ± SD Subcutaneous” value ([2]; 100 mg/kg/day) was 22 ± 2 days, the “% Parasite inhibition Subcutaneous 5th day” value ([2]; 100 mg/kg/day) was 38.6% and the “% Parasite inhibition Subcutaneous 7th day” value ([2]; 100 mg/kg/day) was 21.7%. For the same compound, the IC50 ([3]; MRC5, 48 h, read-out: IC50 Human fibroblasts MRC-5) was 108 µM, the IC50 ([3]; MRC5, 48 h, read-out: IC50 MRC-5 cells) was 47.3 µg/mL and the IC50 [6] was 2.5 to 4.1 µM.
In the case of `CC1(C)C(=O)C=C[C@@]2(C)C1[C@@H](O)[C@@H](O)[C@]1(C)C2CC[C@@]2(C)[C@H](c3ccoc3)OC(=O)[C@H]3O[C@]321` (stereo partly drawn) [compound 5, 6α-hydroxydeacetylgedunin], the IC50 ([1]; K1 strain, 48 h incubation) is reported as 5 µM, the “Result Plasmodium falciparum K1” value [1] is reported as “A (0.1 < IC50 ≤ 5 μM = active (A))” and the IC50 [3, 12] is reported as greater than 219 µM.
In the case of `CC(=O)O[C@@H]1C[C@H]2C(C)(C)C(=O)C=C[C@]2(C)[C@H]2CC[C@@]3(C)[C@H](c4ccoc4)OC(=O)[C@H]4O[C@]43[C@@]21C` [compound 6, Gedunin], the “suppression of P. berghei in mice” value ([7]; oral doses of 25 or 100 mg/kg/day) is given as “did not suppress” and the IC50 [8] is given as 0.4 to 2.5 µM.
In the case of `CC(=O)O[C@@H]1C2C(C)(C)C(=O)C=C[C@]2(C)C2CC[C@@]3(C)[C@H](c4ccoc4)OC(=O)[C@H]4O[C@]43[C@]2(C)[C@@H]1O` (stereo partly drawn) [compound 7, andirolide H], the IC50 [4] is given as 4 µM.
For `CC(=O)O[C@@H]1[C@H](O)C2C(C)(C)C(=O)C=C[C@]2(C)C2CC[C@@]3(C)[C@H](c4ccoc4)OC(=O)[C@H]4O[C@]43[C@@]21C` (stereo partly drawn) [compound 8, 6α-hydroxygedunin], the IC50 [4] is given as 90 µM.
In the case of `CC1(C)C(=O)C=C[C@@]2(C)C1C[C@@H](O)[C@]1(C)C2CC[C@@]2(C)[C@H](c3ccoc3)OC(=O)[C@H]3O[C@]321` (stereo partly drawn) [compound 9, 7-deacetylgedunin], the “IC50 against W2” value [5] is given as 1.3 µg/mL (≈ 2.95 µM), the “stability under physiologic conditions found in mice” value ([9]; physiologic conditions) is given as “unstable” and the “stability under simulated gastric (low pH) conditions” value ([9]; simulated gastric (low pH)) is given as “low stability”. The “IC50 against D6” value ([10]; D6) was 2.6 µg/mL (≈ 5.9 µM) and the “times less in vitro activity than gedunin” value ([10]; D6 and W2, compared to gedunin) was “about 65 times”.
In the case of `CO[C@@H]1CC2C(C)(C)C(=O)C=C[C@]2(C)C2CC[C@@]3(C)[C@H](c4ccoc4)OC(=O)[C@H]4O[C@]43[C@@]21C` (stereo partly drawn) [compound 10, 7-deacetyl-7-O-methylgedunin], the “inhibition of parasitaemia of P. berghei ANKA in mice” value ([7]; oral, 50 mg/kg/day) is listed as 68%.
In the case of `C=C1[C@@H]2CC[C@@]3(C)[C@H](c4ccoc4)OC(=O)C[C@]13O[C@H]1CC(=O)C(C)(C)[C@H](CC(=O)OC)[C@]12C` [methyl angolensate], the IC50 [4] is listed as 12 to 15 µM.
In the case of `C=C[C@H]1C[N@@]2CC[C@H]1C[C@H]2[C@H](O)c1ccnc2ccc(OC)cc12` [quinine sulfate, reference compound], the IC50 ([1]; K1 strain, 48 h incubation) is reported as 0.3 µM and the “Result Plasmodium falciparum K1” value [1] is reported as “A (0.1 < IC50 ≤ 5 μM = active (A))”.
In the case of `C=C[C@H]1C[N@@]2CC[C@H]1C[C@H]2[C@H](O)c1ccnc2ccc(OC)cc12` [quinine], the “median effective dose (ED50)” value ([7]; mice infected with P. berghei strain ANKA) is listed as 34 mg/kg/day.
In the case of `C[C@H]1[C@H](OC(=O)CCC(=O)[O-])O[C@@H]2O[C@@]3(C)CC[C@H]4[C@H](C)CC[C@@H]1[C@@]24OO3.[Na+]` [sodium artesunate], the “doses at which infected mice exhibit recrudescence” value [11] is listed as less than 80 mg/kg/day.
